Data taken from ChEMBL document CHEMBL1201862, “PubChem BioAssay data set” (2004).
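Growth conditions: 96-well plates. Treatment: test compound, 48 hours, 5 concentrations. Analysis: linear interpolation between bracketing concentrations; unreached endpoints set to highest concentration. Abbreviation: GI50, concentration required for 50% inhibition of growth.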 Active and inactive are the calls of the source. No stated cut-off is given here; in the data, active = GI50 up to about 1.1 µM and inactive = higher.

Tests used:
Assay in all cases: growth of human tumour cells (NCI), 48 h
[1] = test system: LOX IMVI
[2] = test system: CCRF-CEM
[3] = test system: U-251
[4] = test system: IGROV-1
[5] = test system: SF-295
[6] = test system: SNB-75
[7] = test system: UACC-62
[8] = test system: HCT-116
[9] = test system: MOLT-4
[10] = test system: NCI-H23
[11] = test system: NCI/ADR-RES
[12] = test system: SF-268
[13] = test system: HCT-15
[14] = test system: NCI-H522
[15] = test system: SK-OV-3
[16] = test system: HT-29
[17] = test system: COLO 205
[18] = test system: HOP-62
[19] = test system: HOP-92
[20] = test system: TK-10
[21] = test system: MDA-N
[22] = test system: HL-60
[23] = test system: NCI-H460
[24] = test system: NCI-H226
[25] = test system: A549
[26] = test system: Hs-578T
[27] = test system: SR
[28] = test system: BT-549
[29] = test system: SK-MEL-2
[30] = test system: OVCAR-5
[31] = test system: RXF 393
[32] = test system: K562
[33] = test system: SW-620
[34] = test system: 786-0
[35] = test system: OVCAR-8
[36] = test system: SF-539
[37] = test system: SN12C
[38] = test system: OVCAR-4
[39] = test system: DU-145
[40] = test system: CAKI-1
[41] = test system: HCC 2998
[42] = test system: T47D
[43] = test system: RPMI-8226
[44] = test system: UACC-257
[45] = test system: SK-MEL-5
[46] = test system: EKVX
[47] = test system: MCF7
[48] = test system: KM12
[49] = test system: A498
[50] = test system: SNB-19
[51] = test system: MDA-MB-435
[52] = test system: MDA-MB-231
[53] = test system: ACHN
[54] = test system: PC-3
[55] = test system: M14
[56] = test system: SK-MEL-28
[57] = test system: OVCAR-3
[58] = test system: Malme-3M

COc1c(C)c(OCC=C(C)C)cc(CO)c1CO
GI50 [1]: 28.9 µM (inactive) | GI50 [2]: 44.9 µM (inactive) | GI50 [3]: 50.1 µM (inactive) | GI50 [4]: 38.2 µM (inactive) | GI50 [5]: 45.4 µM (inactive) | GI50 [6]: 47.6 µM (inactive) | GI50 [7]: 60.8 µM (inactive) | GI50 [8]: 32.6 µM (inactive) | GI50 [9]: 26.7 µM (inactive) | GI50 [10]: 38.7 µM (inactive) | GI50 [11]: 26.3 µM (inactive) | GI50 [12]: > 100 µM (inactive) | GI50 [13]: 41.5 µM | GI50 [14]: 7.46 µM (inactive) | GI50 [15]: 97.3 µM (inactive) | GI50 [16]: 54.5 µM (inactive) | GI50 [17]: 58.6 µM (inactive) | GI50 [18]: 56.5 µM (inactive) | GI50 [19]: > 100 µM (inactive) | GI50 [20]: 89.5 µM (inactive) | GI50 [21]: 71.3 µM (inactive) | GI50 [22]: 47.5 µM (inactive) | GI50 [23]: 38.7 µM (inactive) | GI50 [24]: 87.3 µM (inactive) | GI50 [25]: 47.5 µM (inactive) | GI50 [26]: 44.1 µM (inactive) | GI50 [27]: 18.2 µM (inactive) | GI50 [28]: 42.9 µM (inactive) | GI50 [29]: 71.4 µM (inactive) | GI50 [30]: > 100 µM (inactive) | GI50 [31]: 10.7 µM (inactive) | GI50 [32]: 26.3 µM (inactive) | GI50 [33]: 74.5 µM (inactive) | GI50 [34]: 7.23 µM (inactive) | GI50 [35]: 36 µM (inactive) | GI50 [36]: 53.7 µM (inactive) | GI50 [37]: 88.3 µM (inactive) | GI50 [38]: 35.6 µM (inactive) | GI50 [39]: 92 µM (inactive) | GI50 [40]: 46.8 µM (inactive) | GI50 [41]: 82.6 µM (inactive) | GI50 [42]: 38.1 µM (inactive) | GI50 [43]: 20.4 µM (inactive) | GI50 [44]: 81.8 µM (inactive) | GI50 [45]: 22.6 µM (inactive) | GI50 [46]: 77.8 µM (inactive) | GI50 [47]: 38.5 µM (inactive) | GI50 [48]: 63 µM (inactive) | GI50 [49]: 44.1 µM (inactive) | GI50 [50]: 88.3 µM (inactive) | GI50 [51]: 55.3 µM (inactive) | GI50 [52]: 69.8 µM (inactive) | GI50 [53]: 67.8 µM (inactive) | GI50 [54]: 36 µM (inactive) | GI50 [55]: > 100 µM (inactive)

CCN(CC)CCn1c2cc3c(cc2c(=O)c2cccnc21)OCCO3
GI50 [2]: 5.46 µM (inactive) | GI50 [3]: > 10 µM (inactive) | GI50 [4]: > 10 µM (inactive) | GI50 [5]: > 10 µM (inactive) | GI50 [6]: > 10 µM (inactive) | GI50 [7]: > 10 µM (inactive) | GI50 [8]: 4.72 µM (inactive) | GI50 [9]: 3.78 µM (inactive) | GI50 [10]: > 10 µM (inactive) | GI50 [11]: > 10 µM (inactive) | GI50 [12]: > 10 µM (inactive) | GI50 [13]: > 10 µM | GI50 [14]: > 10 µM (inactive) | GI50 [56]: > 10 µM (inactive) | GI50 [15]: > 10 µM (inactive) | GI50 [16]: > 10 µM (inactive) | GI50 [17]: > 10 µM (inactive) | GI50 [18]: > 10 µM (inactive) | GI50 [19]: > 10 µM (inactive) | GI50 [20]: > 10 µM (inactive) | GI50 [21]: > 10 µM (inactive) | GI50 [57]: > 10 µM (inactive) | GI50 [22]: > 10 µM (inactive) | GI50 [25]: > 10 µM (inactive) | GI50 [26]: > 10 µM (inactive) | GI50 [27]: 4.44 µM (inactive) | GI50 [28]: > 10 µM (inactive) | GI50 [31]: > 10 µM (inactive) | GI50 [33]: 5.28 µM (inactive) | GI50 [34]: > 10 µM (inactive) | GI50 [35]: > 10 µM (inactive) | GI50 [36]: > 10 µM (inactive) | GI50 [37]: 9.71 µM (inactive) | GI50 [38]: > 10 µM (inactive) | GI50 [39]: > 10 µM (inactive) | GI50 [40]: > 10 µM (inactive) | GI50 [41]: 6.4 µM (inactive) | GI50 [42]: > 10 µM (inactive) | GI50 [43]: > 10 µM (inactive) | GI50 [44]: > 10 µM (inactive) | GI50 [45]: > 10 µM (inactive) | GI50 [46]: > 10 µM (inactive) | GI50 [47]: 7.82 µM (inactive) | GI50 [48]: > 10 µM (inactive) | GI50 [49]: 0.0912 µM (active) | GI50 [50]: > 10 µM (inactive) | GI50 [51]: > 10 µM (inactive) | GI50 [52]: 9.51 µM (inactive) | GI50 [58]: > 10 µM (inactive) | GI50 [53]: 4.99 µM (inactive) | GI50 [54]: > 10 µM (inactive) | GI50 [55]: > 10 µM (inactive)
